Measured values from patent publication US4110536A, “Derivatives of 5-(indol-3-yl)hydantoin” (Miles Laboratories, Inc., priority 1977, dated 1978).
Where two headings read alike, the source gives them in different places.

Assays:
[1] = tested on: chloroform-induced arrhythmias; conditions: mouse, in vivo, ip, 10 min
Description: The antiarrhythmic activity of the compounds listed above were tested in the experimental model reported by J. W. Lawson (J. Pharmacol. Exp. Therap., 160: 22-31 (1968).
The test compounds were administered in varying intraperitoneal doses to groups consisting of 5 mice. Ten minutes after administration of a given dose of a compound, a mouse was transferred to a covered 300 ml glass beaker that contained a wad of cotton saturated with about 20 ml of chloroform. The animal was observed closely and removed from the beaker immediately after respiratory arrest. The heart was quickly exposed by making an incision through the abdomen, diaphragm, thorax and pericardium for visual inspection of ventricular rate and rhythm. Ventricular contractions were counted for 30 seconds. According to the procedure reported by Lawson, animals with ventricular rate not exceeding 100 contractions during the 30 second observation period were considered protected.

in vivo = conditions: mouse, ip
Description: (§1) LD50 data were obtained by standard procedures known to the art.
(§2) In order to obtain an indication of the specificity and/or safety margin of the antiarrhythmic effect, the acute toxicity of the compounds was investigated. This was carried out by administering log-spaced intraperitoneal doses of the test compounds to groups of five mice.

[2] = cited from earlier work
[3] = tested on: ventricular arrhythmias induced by digitalis; conditions: prior-art background; cited from earlier work

Description for mice: as §1, §2

Compound | ED50 [1] [mg/kg] | LD50 at 48 h (in vivo) [mg/kg] | selectivity ratio (in vivo) | further results
O=C1NC(Cc2c[nH]c3ccccc23)C(=O)N1CCCN1CCC(O)(c2ccccc2)CC1 (stereo not shown) [Example 13, 3-[3-(4-Hydroxy-4-phenylpiperid-1-yl)propyl]-5-[(indol-3-yl)methyl]hydantoi] | 23 | 57 | 2.5 | –
COc1ccc2[nH]cc(CC3NC(=O)N(CCCN4CCC(c5ccccc5)CC4)C3=O)c2c1 (stereo not shown) [Example 21, 5-(5-Methoxyindol-3-ylmethyl)-3-[3-(4-phenylpiperid-1-yl)propyl]hydantoin] | 9 | 24 | 2.7 | –
CCN(CC)CCCN1C(=O)NC(c2ccccc2)(c2c[nH]c3ccccc23)C1=O (stereo not shown) [Example 14, 3-(3-Diethylaminopropyl)-5-(indol-3-yl)-5-phenylhydantoin] | 27 | 48 | 1.8 | –
C[N+]1(CCCN2C(=O)NC(Cc3c[nH]c4ccccc34)C2=O)CCC(c2ccccc2)CC1 (stereo not shown) [Example 10, 5-(Indol-3-ylmethyl)-3-[3-(4-phenyl-1-piperidyl)propyl]hydantoin methiodide] | 19.6 | 69 | 3.5 | –
CCN(CC)CCCN1C(=O)NC(Cc2c[nH]c3ccc(OC)cc23)C1=O (stereo not shown) [Example 18, 3-(3-Diethylaminopropyl)-5-(5-methoxyindol-3-ylmethyl)hydantoin] | 13 | 61 | 4.7 | –
O=C1NC(Cc2c[nH]c3ccccc23)C(=O)N1CCCN1CCCCC1 (stereo not shown) [Example 20, 5-(Indol-3-ylmethyl)-3-(3-piperidylpropyl)hydantoin] | 23.8 | 190 | 8 | –
CCN(CC)CCCN1C(=O)NC(Cc2c[nH]c3ccc(Cl)cc23)C1=O (stereo not shown) [Example 17, 5-(5-Chloroindol-3-ylmethyl)-3-(diethylaminopropyl)hydantoin] | 44 | 74 | 1.7 | –
O=C1NC(c2ccccc2)(c2c[nH]c3ccccc23)C(=O)N1CCCN1CCC(c2ccccc2)CC1 (stereo not shown) [Example 12, 5-(Indol-3-yl)-5-phenyl-3-[3-(4-phenyl-1-piperidyl)propyl]hydantoin] | 80 | 63 | 0.9 | –
5-[(indol-3-yl)methyl]hydantoin [V (R=II)] | 72 | – | – | Therapeutic Index (mice; LD50/ED50, mouse, i.p.): 4.3; LD50 (mice; mouse, in vivo, ip, 2880 min): 307 mg/kg
O=C1NC(c2c[nH]c3ccccc23)C(=O)N1CCCN1CCCCC1 (stereo not shown) [Example 6, 5-(Indol-3-yl)-3-[3-(piperid-1-yl)propyl]hydantoin] | – | 66 | 3.1 | –
O=C1NC(Cc2c[nH]c3ccc(Cl)cc23)C(=O)N1CCCN1CCC(c2ccccc2)CC1 (stereo not shown) [Example 11, 5-(5-Chloroindol-3-ylmethyl)-3-[3-(4-phenyl-1-piperidyl)propyl]hydantoin] | 37 | 69 | 1.9 | –
CCN(CC)CCCN1C(=O)NC(c2c[nH]c3ccccc23)C1=O (stereo not shown) [Example 15, 3-(3-Diethylaminopropyl)-5-(indol-3-yl)hydantoin] | 44 | 79 | 1.8 | –
C=C[C@H]1C[N@@]2CC[C@H]1C[C@@H]2[C@@H](O)c1ccnc2ccc(OC)cc12 [Quinidine] | – | – | – | side effects / toxicity ([2]; prior-art background): relatively toxic
O=C1NC(=O)C(c2ccccc2)(c2ccccc2)N1 [III, 5,5-diphenyl-2,4-imidazolidinedione] | 123 | – | – | antiarrhythmic effects [3]: specifically antagonizes ventricular arrhythmias induced by digitalis, depresses ventricular automaticity, enhances atrio-ventricular nodal conduction, and reduces the effective refractory period; side effects / toxicity ([2]; in vivo): dizziness, nausea, emesis, nystigmus, and ataxia; side effects / toxicity ([2]; prior-art background, listed as DPH): toxic and may produce atrio-ventricular blockage, bradycardia, or even cardiac arrest
O=C1NC(Cc2c[nH]c3ccccc23)C(=O)N1CCCN1CCC(c2ccccc2)CC1 (stereo not shown) [Example 9, 5-(Indol-3-ylmethyl)-3-[3-(4-phenyl-1-piperidyl)propyl]hydantoin] | 7.5 | 19 | 2.5 | –
